Values quoted from earlier work, collected in US12420242B1 (KING SAUD UNIVERSITY, priority 2025, dated 2025).
Converted amounts (≈) assume the structure as drawn. Read-outs that look alike come from different tables or passages of the source.

Tests used:
[1] = not given; remark: listed apart in the source

Density (Table 1) [g · cm^−3]	Density [g/mL]	Structure (SMILES)	solubility in water [1] [µg/mL]	solubility in water ([1]; Table 1) [µg/mL]
1.05	1.05	c1ccsc1 [thiophene]		
1.00	1.0	O [water]		

Structure (SMILES)	Density (Table 1) [g · cm^−3]	Density [g/mL]	solubility in water [1] [µg/mL]	solubility in water ([1]; Table 1) [µg/mL]
CCCCCCC [n-heptane]	0.68		2 (≈ 20 µM)	2 (≈ 20 µM)
